Source: patent US10611740B2, “Aryl dihydro-2H-benzo[b][1,4]oxazine sulfonamide and related compounds for use as agonists of RORγ and the treatment of disease” (Lycera Corporation, priority 2015, dated 2020)

Key:
RORγ-LBD = target: T1, RORγ-LBD (Homo sapiens, UniProt P51449); assay: RORγ-Ligand Binding Domain (LBD) TR-FRET Assay; assay type: biochemical;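 on TR-FRET Assay Max Response: 665/615 nm ratio relative to signal without ursolic acid or compound set at 100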
T1 construct: made in house; host or cells: SF9 cells (baculovirus)
T1 sequence (P51449 269-508 limits assumed): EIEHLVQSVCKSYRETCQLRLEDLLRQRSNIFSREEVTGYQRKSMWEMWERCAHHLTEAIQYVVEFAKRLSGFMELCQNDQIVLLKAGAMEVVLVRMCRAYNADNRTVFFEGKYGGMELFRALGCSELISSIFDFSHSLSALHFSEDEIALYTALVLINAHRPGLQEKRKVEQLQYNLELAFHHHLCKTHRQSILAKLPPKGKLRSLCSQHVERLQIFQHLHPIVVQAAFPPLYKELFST
In short: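 This TR-FRET coactivator assay pairs baculovirus-expressed His-RORγ-LBD (~3 nM final) with biotin-SRC1 LXXLL peptide at 200 nM final in pH 7.0 Tris/KCl/EDTA/DTT/BSA buffer.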

Gal4-RORγ-LBD = target: T2, Gal4-RORγ-LBD (Homo sapiens, UniProt P51449); assay: Gal4-RORγ Luciferase Reporter Assay in HEK-293T Cells; assay type: cell-based; conditions: HEK-293 cells
T2 construct: expressed in transfected cells; host or cells: HEK-293 cells (pcDNA3.1neo plasmid)
T2 sequence (P51449 269-508 limits assumed): T1 sequence (P51449 269-508 limits assumed)
In short: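 Luminescence read-out (One-Glo, 10 min RT) after overnight compound exposure at 37 °C in HEK-293 cells carrying Gal4-RORγ-LBD plus a Gal4-luciferase reporter, in the presence of 2 μM ursolic acid. Max Response is the upper plateau from a 4-parameter logistic fit, normalized to untreated signal = 100.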

[1] = luciferase reporter, with 2 μM ursolic acid

| SMILES | EC50 (RORγ-LBD) [µM] | EC50 (Gal4-RORγ-LBD; [1]) [µM] | EC50 (Gal4-RORγ-LBD; 2 μM ursolic acid) [µM] | Gal4-RORγ Assay Max Response (Gal4-RORγ-LBD; [1]) | TR-FRET Assay Max Response (RORγ-LBD) | Gal4-RORγ Assay Max Response (Gal4-RORγ-LBD; 2 μM ursolic acid) |
| --- | --- | --- | --- | --- | --- | --- |
| Cc1nnc(-c2ccc3c(c2)N(S(=O)(=O)c2cccc(C(F)(F)F)c2)C[C@H](CCC(=O)O)O3)s1 [Compound 2AZ, (S)-3-(6-(5-methyl-1,3,4-thiadiazol-2-yl)-4-((3-(trifluoromethyl)phenyl)-sulfonyl)-3,4-dihydro-2H-benzo[b][1,4]oxazin-2-yl)propanoic acid] | > 10 | > 10 | – | ** (The symbol “**” indicates a value in the range of greater than 90 to 150) | – | – |
| Cc1cccc(-c2ccc3c(c2)N(S(=O)(=O)c2cccc(C(F)(F)F)c2)C[C@H](CCC(=O)O)O3)c1 [Compound 2Q, (S)-3-(6-(m-tolyl)-4-((3-(trifluoromethyl)phenyl)-sulfonyl)-3,4-dihydro-2H-benzo[b][1,4]oxazin-2-yl)propanoic acid] | < 0.5 | < 0.5 | – | *** (The symbol “***” indicates a value in the range of greater than 150 to 200) | *** (The symbol “***” indicates a value in the range of greater than 150 to 200) | – |
| O=C(O)[C@H]1C[C@@H]1[C@H]1CN(S(=O)(=O)c2cccc(C(F)(F)F)c2)c2cc(-c3cc(F)cc(OC(F)F)c3)ccc2O1 [Compound 56, (1S,2S)-2-((S)-6-(3-(difluoromethoxy)-5-fluorophenyl)-4-((3-(trifluoromethyl)phenyl)sulfonyl)-3,4-dihydro-2H-benzo[b][1,4]oxazin-2-yl)cyclopropane-1-carboxylic acid] | < 0.5 | – | 0.5 to 5 | – | ** (The symbol “**” indicates a value in the range of greater than 90 to 150) | ** (The symbol “**” indicates a value in the range of greater than 90 to 150) |
| Cn1ccc(-c2ccc3c(c2)N(S(=O)(=O)c2cccc(C(F)(F)F)c2)C[C@H](CCC(=O)O)O3)n1 [Compound 4W, (S)-3-(6-(1-methyl-1H-pyrazol-3-yl)-4-((3-(trifluoromethyl)-phenyl)sulfonyl)-3,4-dihydro-2H-benzo[b][1,4]oxazin-2-yl)propanoic acid] | 0.5 to 5 | 0.5 to 5 | – | ** (The symbol “**” indicates a value in the range of greater than 90 to 150) | **** (The symbol “****” indicates a value greater than 200) | – |
| Cc1cccc(-c2ccc3c(c2)N(S(=O)(=O)c2cccc(C(F)(F)F)c2)C[C@H](CCC(=O)O)O3)c1C [Compound 2BR, (S)-3-(6-(2,3-dimethylphenyl)-4-((3-(trifluoromethyl)phenyl)-sulfonyl)-3,4-dihydro-2H-benzo[b][1,4]oxazin-2-yl)propanoic acid] | < 0.5 | – | < 0.5 | – | *** (The symbol “***” indicates a value in the range of greater than 150 to 200) | ** (The symbol “**” indicates a value in the range of greater than 90 to 150) |
| COc1ccccc1-c1ccc2c(c1)N(S(=O)(=O)c1cccc(C(F)(F)F)c1)C[C@H](CCC(=O)O)O2 [Compound 2T, (S)-3-(6-(2-methoxyphenyl)-4-((3-(trifluoromethyl)phenyl)-sulfonyl)-3,4-dihydro-2H-benzo[b][1,4]oxazin-2-yl)propanoic acid] | < 0.5 | < 0.5 | – | *** (The symbol “***” indicates a value in the range of greater than 150 to 200) | **** (The symbol “****” indicates a value greater than 200) | – |
| O=C(O)CC[C@H]1CN(S(=O)(=O)c2cccc(C(F)(F)F)c2)c2cc(-c3c(F)cccc3Cl)ccc2O1 [Compound 2AG, (S)-3-(6-(2-chloro-6-fluoro-phenyl)-4-((3-(trifluoromethyl)-phenyl)sulfonyl)-3,4-dihydro-2H-benzo[b][1,4]oxazin-2-yl)propanoic acid] | < 0.5 | < 0.5 | – | *** (The symbol “***” indicates a value in the range of greater than 150 to 200) | **** (The symbol “****” indicates a value greater than 200) | – |
| O=C(O)CC[C@H]1CN(S(=O)(=O)c2cccc(C(F)(F)F)c2)c2cc(-c3ccc(F)cc3Cl)ccc2O1 [Compound 2W, (S)-3-(6-(2-chloro-4-fluorophenyl)-4-((3-(trifluoromethyl)phenyl)-sulfonyl)-3,4-dihydro-2H-benzo[b][1,4]oxazin-2-yl)propanoic acid] | < 0.5 | 0.5 to 5 | – | ** (The symbol “**” indicates a value in the range of greater than 90 to 150) | *** (The symbol “***” indicates a value in the range of greater than 150 to 200) | – |

Continued, in another order:

| EC50 (RORγ-LBD) [µM] | EC50 (Gal4-RORγ-LBD; [1]) [µM] | EC50 (Gal4-RORγ-LBD; 2 μM ursolic acid) [µM] | SMILES | Gal4-RORγ Assay Max Response (Gal4-RORγ-LBD; [1]) | TR-FRET Assay Max Response (RORγ-LBD) | Gal4-RORγ Assay Max Response (Gal4-RORγ-LBD; 2 μM ursolic acid) |
| --- | --- | --- | --- | --- | --- | --- |
| < 0.5 | – | < 0.5 | CC(F)(F)C(=O)NC[C@H]1CN(S(=O)(=O)c2cccc(C(F)(F)F)c2)c2cc(-c3cccc(F)c3Cl)ccc2O1 [Compound 30CE, (S)-N-((6-(2-chloro-3-fluoro-phenyl)-4-((3-(trifluoromethyl)-phenyl)sulfonyl)-3,4-dihydro-2H-benzo[b][1,4]oxazin-2-yl)methyl)-2,2-difluoro-propanamide] | – | *** (The symbol “***” indicates a value in the range of greater than 150 to 200) | * (The symbol “*” indicates a value in the range of 25 to 90) |
| < 0.5 | < 0.5 | – | COc1cccc(-c2ccc3c(c2)N(S(=O)(=O)c2cccc(C(F)(F)F)c2)C[C@H](CCNC(=O)C(C)(C)O)O3)c1 [Compound 30E, (S)-2-hydroxy-N-(2-(6-(3-methoxyphenyl)-4-((3-(trifluoromethyl)phenyl)sulfonyl)-3,4-dihydro-2H-benzo[6][1,4]oxazin-2-yl)ethyl)-2-methylpropanamide] | ** (The symbol “**” indicates a value in the range of greater than 90 to 150) | **** (The symbol “****” indicates a value greater than 200) | – |
| < 0.5 | < 0.5 | – | COc1cccc(-c2cc(F)c3c(c2)N(S(=O)(=O)c2cccc(C(F)(F)F)c2)C[C@H](CCC(=O)O)O3)c1 [Compound 22D, (S)-3-(8-fluoro-6-(3-methoxyphenyl)-4-((3-(trifluoromethyl)phenyl)sulfonyl)-3,4-dihydro-2H-benzo[b][1,4]-oxazin-2-yl)propanoic acid] | ** (The symbol “**” indicates a value in the range of greater than 90 to 150) | **** (The symbol “****” indicates a value greater than 200) | – |
| < 0.5 | – | < 0.5 | CC(C)(C[C@H]1CN(S(=O)(=O)c2cccc(C(F)(F)F)c2)c2cc(-c3cc(F)ccc3F)ccc2O1)NS(C)(=O)=O [Compound 30DE, (S)-N-(1-(6-(2,5-difluoro-phenyl)-4-((3-(trifluoromethyl)-phenyl)sulfonyl)-3,4-dihydro-2H-benzo[b][1,4]oxazin-2-yl)-2-methylpropan-2-yl)methane-sulfonamide] | – | *** (The symbol “***” indicates a value in the range of greater than 150 to 200) | * (The symbol “*” indicates a value in the range of 25 to 90) |
| < 0.5 | – | < 0.5 | CC(C)(C[C@H]1CN(S(=O)(=O)c2cccc(C(F)(F)F)c2)c2cc(-c3cc(F)cc(Cl)c3F)ccc2O1)C(=O)O [Compound 32AI, (S)-3-(6-(3-chloro-2,5-difluoro-phenyl)-4-((3-(trifluoromethyl)-phenyl)sulfonyl)-3,4-dihydro-2H-benzo[b][1,4]oxazin-2-yl)-2,2-dimethylpropanoic acid] | – | *** (The symbol “***” indicates a value in the range of greater than 150 to 200) | ** (The symbol “**” indicates a value in the range of greater than 90 to 150) |
| < 0.5 | < 0.5 | – | CC(C)c1cccc(S(=O)(=O)N2C[C@H](CCNC(=O)C(C)(C)O)Oc3ccc(-c4cc(F)ccc4F)cc32)c1 [Compound 30D, (S)-N-(2-(6-(2,5-difluoro-phenyl)-4-((3-isopropylphenyl)-sulfonyl)-3,4-dihydro-2H-benzo[b][1,4]oxazin-2-yl)ethyl)-2-hydroxy-2-methylpropanamide] | * (The symbol “*” indicates a value in the range of 25 to 90) | **** (The symbol “****” indicates a value greater than 200) | – |
| < 0.5 | – | < 0.5 | CC(C)(C[C@H]1CN(S(=O)(=O)c2cccc(C(F)(F)F)c2)c2cc(-c3cc(F)cc(OC(F)F)c3F)ccc2O1)C(=O)O [Compound 32BG, (S)-3-(6-(3-(difluoromethoxy)-2,5-difluorophenyl)-4-((3-(trifluoromethyl)phenyl)sulfonyl)-3,4-dihydro-2H-benzo[b][1,4]-oxazin-2-yl)-2,2-dimethyl-propanoic acid] | – | ** (The symbol “**” indicates a value in the range of greater than 90 to 150) | ** (The symbol “**” indicates a value in the range of greater than 90 to 150) |
